Test results: US8574563B2 (Bristol-Myers Squibb Company, priority 2006, dated 2013)
Read-outs that look alike come from different tables or passages of the source.

Tested on: HCV 1b-377-neo replicon cells
Test: HCV replicon assay, HCV 1b-377-neo replicon cells (1b FRET)
Format: cell-based, Hepatitis C virus genotype 1b
Details: HCV 1b-377-neo replicon cells, HCV 1b genotype, read-out: EC50 range against HCV 1b (Table 2, Range)
Summary of the method: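 Compounds tested in HCV genotype 1b-377-neo replicon cells with a FRET read-out. Cells resistant to a reference NS5A inhibitor through a Y2065H NS5A mutation were run alongside wild-type cells.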

| SMILES | EC50 (Hepatitis C virus) [pM] | EC50 [pM] |
| --- | --- | --- |
| CC[C@H](C(=O)N1CCC[C@H]1c1ncc(-c2ccc(-c3ccc(-c4cnc([C@@H]5CCCN5C(=O)[C@H](NC(=O)OC)c5ccccc5)[nH]4)cc3)cc2)[nH]1)N(CC)CC [Example M66x, methyl ((1R)-2-((2S)-2-(5-(4′-(2-((2S)-1-((2R)-2-(diethylamino)butanoyl)-2-pyrrolidinyl)-1H-imidazol-5-yl)-4-biphenylyl)-1H-imidazol-2-yl)-1-pyrrolidinyl)-2-oxo-1-phenylethyl)carbamate] | 1000 to 99000 |  |
| COC(=O)N[C@@H](C(=O)N1CCC[C@H]1c1ncc(-c2ccc(-c3ccc(-c4cnc([C@@H]5CCCN5C(=O)[C@H](NC(=O)OC)c5ccccc5)[nH]4)cn3)nc2)[nH]1)c1ccccc1 [Example 145, dimethyl (2,2′-bipyridine-5,5′-diylbis(1H-imidazole-5,2-diyl(2S)-2,1-pyrrolidinediyl((1R)-2-oxo-1-phenyl-2,1-ethanediyl)))biscarbamate] | 1 to 999 |  |
| O=C(C(c1ccccc1)N1CCC(c2ccccc2)CC1)N1CCC[C@H]1c1ncc(-c2ccc(-c3ccc(-c4c[nH]c([C@@H]5CCCN5C(=O)[C@H]5CCCO5)n4)cc3)cc2)[nH]1 (stereo partly drawn) [Example 103-2, 1-(2-oxo-1-phenyl-2-((2S)-2-(5-(4′-(2-((2S)-1-((2R)-tetrahydro-2-furanylcarbonyl)-2-pyrrolidinyl)-1H-imidazol-4-yl)-4-biphenylyl)-1H-imidazol-2-yl)-1-pyrrolidinyl)ethyl)-4-phenylpiperidine] |  | 1 to 999 |
| CCNC(=O)NCc1ccc(C[C@H](NC(=O)OC)C(=O)N2CCC[C@H]2c2ncc(-c3ccc(-c4ccc(-c5cnc([C@@H]6CCCN6C(=O)[C@@H](NC(=O)OC)C(C)C)[nH]5)cc4)cc3)[nH]2)cc1 [cj-115, methyl ((1S)-1-(4-(((ethylcarbamoyl)amino)methyl)benzyl)-2-((2S)-2-(5-(4′-(2-((2S)-1-((2S)-2-((methoxycarbonyl)amino)-3-methylbutanoyl)-2-pyrrolidinyl)-1H-imidazol-5-yl)-4-biphenylyl)-1H-imidazol-2-yl)-1-pyrrolidinyl)-2-oxoethyl)carbamate] | 1 to 999 |  |
| COC(=O)N[C@@H](Cc1c[nH]nn1)C(=O)N1CCC[C@H]1c1ncc(-c2ccc(-c3ccc(-c4cnc([C@@H]5CCCN5C(=O)[C@@H](NC(=O)OC)C(C)C)[nH]4)cc3)cc2)[nH]1 [cj-34, methyl ((1S)-1-(((2S)-2-(5-(4′-(2-((2S)-1-((2S)-2-((methoxycarbonyl)amino)-3-(1H-1,2,3-triazol-4-yl)propanoyl)-2-pyrrolidinyl)-1H-imidazol-5-yl)-4-biphenylyl)-1H-imidazol-2-yl)-1-pyrrolidinyl)carbonyl)-2-methylpropyl)carbamate] | 1 to 999 |  |
| O=C(N[C@@H](C(=O)N1CCC[C@H]1c1ncc(-c2ccc(-c3ccc(-c4cnc([C@@H]5CCCN5C(=O)[C@@H]5CCCO5)[nH]4)cc3)cc2)[nH]1)c1ccccc1)N1CCOCC1 [Example 111, N-((1R)-2-oxo-1-phenyl-2-((2S)-2-(5-(4′-(2-((2S)-1-((2S)-tetrahydro-2-furanylcarbonyl)-2-pyrrolidinyl)-1H-imidazol-5-yl)-4-biphenylyl)-1H-imidazol-2-yl)-1-pyrrolidinyl)ethyl)-4-morpholinecarboxamide] | 1 to 999 |  |
